Data as given in patent US10538789B2, “Methods for biosynthesis of isoprene” (INVISTA NORTH AMERICA S.A.R.L., priority 2013, dated 2020).
Each block holds one compound with its values, some of them ahead of it.

Legend:
[1] = biological target: T1, enoyl-CoA hydratase encoded by phaJ (SEQ ID NO: 16) (Aeromonas caviae, UniProt O32472); experiment: Enzyme activity assay in the reverse (dehydration) direction, LC-MS; format: biochemical; conditions: 1 mM substrate, 5 μM purified enzyme, 10 mM ammonium acetate pH 8, 30° C., 1 h
T1 construct: His tag (C); made in house; host or cells: E. coli BL21[DE3]
T1 sequence (O32472 1-134): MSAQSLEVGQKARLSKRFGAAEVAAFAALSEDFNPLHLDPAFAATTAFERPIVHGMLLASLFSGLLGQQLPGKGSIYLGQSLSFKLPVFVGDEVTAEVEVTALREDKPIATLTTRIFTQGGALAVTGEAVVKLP
Description: (§1) The C-terminal his-tagged phaJ gene (SEQ ID NO: 16) from Aeromonas punctata was cloned into a pE23a expression vector under the T7 promoter. The expression vector was transformed into a BL21[DE3] E. coli host.
(§2) The resulting recombinant E. coli strain was cultivated in a 1L shake flask culture containing 100 mL Luria Broth media at 30° C., shaking at 200 rpm. The culture was induced using 1 mM IPTG for 2 h.
(§3) The pellet from each of the induced shake flask cultures was harvested by centrifugation. The pellet was resuspended in 20 mM HEPES (pH=7.2), 1 mM PMSF and 29U benzonase. The resuspended pellet was lysed via sonication. The cell debris was separated from the supernatant via centrifugation and filtered using a 0.2 μm filter.
(§4) The phaJ enzyme was purified from the supernatant using Ni-affinity chromatography and concentrated to 1.25 mg/mL.
(§5) The native enzyme activity assay in the reverse (dehydration) direction was undertaken in a buffer composed of 10 mM ammonium acetate (pH=8) and 1 mM of racemic 3-hydroxybutanoyl-CoA. The enzyme activity assay reaction was initiated by adding 5 μM of purified enoyl-CoA hydratase to the assay buffer containing the substrate and incubated at 30° C. for 1 h. The enzyme encoded by phaJ accepted 3-hydroxybutanoyl-CoA as substrate as confirmed via LC-MS.
as §5, with “non-native” for “native”, “3-methyl-3-hydroxypentanoyl-CoA.” for “racemic 3-hydroxybutanoyl-CoA.”, “3-methyl-3-hydroxypentanoyl-CoA” for “3-hydroxybutanoyl-CoA”
The non-native enzyme activity assay in the reverse (dehydration) direction was undertaken in a buffer composed of 10 mM ammonium acetate (pH=8) and 1 mM of 4-methyl-3-hydroxypentanoyl-CoA. […]

[2] = biological target: T2, linalool dehydratase of SEQ ID NO: 13 (CBW30776.1) (Castellaniella defragrans, UniProt E1XUJ2); experiment: Whole cell assay of linalool dehydratase in recombinant E. coli, headspace GC-MS for isoprene; format: cell-based; conditions: 20 mM substrate, 160 mg/mL cells in M9 minimal media, 30° C., 48 h, GC-MS versus empty vector control
T2 construct: expressed in transfected cells; host or cells: E. coli BL21[DE3], whole cells
T2 sequence (E1XUJ2 27-397): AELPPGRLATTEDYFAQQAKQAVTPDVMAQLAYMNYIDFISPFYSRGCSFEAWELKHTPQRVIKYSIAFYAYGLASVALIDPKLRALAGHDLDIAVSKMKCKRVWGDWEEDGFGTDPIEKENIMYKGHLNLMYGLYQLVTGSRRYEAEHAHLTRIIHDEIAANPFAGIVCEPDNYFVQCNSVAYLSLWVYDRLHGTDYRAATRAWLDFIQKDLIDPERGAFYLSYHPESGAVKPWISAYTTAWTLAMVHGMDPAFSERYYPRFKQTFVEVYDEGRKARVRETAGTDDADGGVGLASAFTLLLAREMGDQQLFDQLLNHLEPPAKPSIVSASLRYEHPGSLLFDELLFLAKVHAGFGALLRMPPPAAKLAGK
Description: A sequence encoding a C-terminal His-tag encoding the linalool dehydratase of SEQ ID NO: 13 (see FIGS. 9A-9F) was cloned into a pET15 expression vector under control of the T7 promoter such that a C-terminal HIS tagged enzyme could be produced. The expression vector was transformed into a BL21[DE3] E. coli host. The resulting recombinant E. coli strain was cultivated at 30° C. in a 1L shake flask culture containing 100 mL Auto-Induction media and antibiotic selection pressure, shaking at 220 rpm overnight. The pellet from the induced shake flask culture was harvested via centrifugation and used immediately in a whole cell assay.
The pellet was washed and resuspended in M9 minimal media to 160 mg/mL (wet weight) and dispensed into 10 mL crimped glass vials in triplicate. The substrate 3-methyl-3-buten-2-ol was added to a final concentration of 20 mM and incubated at 30° C. at 220 rpm for 48 h. The headspace of each glass vial was analysed by GC-MS for isoprene and compared to the empty vector control (undertaken in triplicate). The gene product of SEQ ID NO: 13 accepted 3-methyl-3-buten-2-ol as substrate as confirmed via GC-MS (see FIG. 15) and synthesized isoprene as reaction product.

[3] = test system: mevalonate diphosphate decarboxylase of SEQ ID NO: 8 (AAK33797.1); experiment: GHMP superfamily enzyme activity assay, headspace GC-MS for isoprene; format: biochemical, Streptococcus pyogenes; conditions: 10 mM substrate, 30 mM ATP, pH 7.0, 30° C., 24 h, GC-MS versus empty vector control
Text: (§6) Each of the sequences encoding a C-terminal His-tagged gene encoding the mevalonate diphosphate decarboxylase of SEQ ID NOs: 8, 9, 10, and 11 respectively (see FIGS. 9A-9F) and the mevalonate 3-kinase of SEQ ID NO: 12 (see FIGS. 9A-9F) was cloned into a PD681-CH expression vector under control of the rhapBAD promoter, such that a C-terminal HIS tagged GHMP superfamily enzyme could be produced. Each expression vector was transformed into a BL21[DE3] E. coli host. The resulting recombinant E. coli strains were cultivated at 37° C. in a 5L shake flask culture containing 1L Luria Broth (LB) media and kanamycin antibiotic selection pressure, with shaking at 90 rpm. At an OD600 between 0.6 to 0.8, the culture was induced with L-rhamnose to a final concentration of 2 g/L. The cultures was induced for 6 h at 37° C. The pellets from the induced shake flask cultures were harvested via centrifugation and stored at −20° C. […]
(§7) Each enzyme activity assay was performed in an assay buffer composed of 100 mM HEPES (pH=7.0), 100 mM KCl, 30 mM MgCl2, 30 mM ATP, 2 mM DTT and 10 mM of 3-methyl-3-hydroxypent-4-enoate as substrate. […] The headspace of each glass vial was analysed by GC-MS for isoprene and compared to the empty vector control. […]

[4] = test system: mevalonate diphosphate decarboxylase of SEQ ID NO: 9 (AHF01884.1); experiment: as above; format: biochemical, Thioalkalimicrobium aerophilum; conditions: 10 mM substrate, 30 mM ATP, pH 7.0, 30° C., 24 h, GC-MS versus empty vector control
Text: as §6, §7

[5] = test system: mevalonate diphosphate decarboxylase of SEQ ID NO: 10 (CAR68209.1); experiment: as above; format: biochemical, Streptococcus pneumoniae; conditions: 10 mM substrate, 30 mM ATP, pH 7.0, 30° C., 24 h, GC-MS versus empty vector control
Text: as §6, §7

[6] = biological target: T3, mevalonate 3-kinase of SEQ ID NO: 12 (CAC12426.1) (Thermoplasma acidophilum, UniProt Q9HIN1); experiment: as above; format: biochemical; conditions: 10 mM substrate, 30 mM ATP, pH 7.0, 30° C., 24 h, GC-MS versus empty vector control
T3 construct: His tag (C); made in house; host or cells: E. coli BL21[DE3]
T3 sequence (Q9HIN1 1-318): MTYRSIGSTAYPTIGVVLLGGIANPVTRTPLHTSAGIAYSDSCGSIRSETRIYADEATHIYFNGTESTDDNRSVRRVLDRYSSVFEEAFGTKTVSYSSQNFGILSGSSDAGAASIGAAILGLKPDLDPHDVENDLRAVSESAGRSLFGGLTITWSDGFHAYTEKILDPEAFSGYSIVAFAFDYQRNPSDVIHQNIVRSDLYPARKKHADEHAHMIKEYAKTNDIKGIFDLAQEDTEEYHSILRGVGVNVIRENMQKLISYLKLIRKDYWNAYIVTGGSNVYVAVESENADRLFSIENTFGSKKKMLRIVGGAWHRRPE
Text: as §6, §7

[7] = biological target: T4, mevalonate diphosphate decarboxylase of SEQ ID NO: 11 (CAA66158.1) (Saccharomyces cerevisiae, UniProt P32377); experiment: as above; format: biochemical; conditions: 10 mM substrate, 30 mM ATP, pH 7.0, 30° C., 24 h, GC-MS versus empty vector control
T4 construct: His tag (C); made in house; host or cells: E. coli BL21[DE3]
T4 sequence (P32377 1-396): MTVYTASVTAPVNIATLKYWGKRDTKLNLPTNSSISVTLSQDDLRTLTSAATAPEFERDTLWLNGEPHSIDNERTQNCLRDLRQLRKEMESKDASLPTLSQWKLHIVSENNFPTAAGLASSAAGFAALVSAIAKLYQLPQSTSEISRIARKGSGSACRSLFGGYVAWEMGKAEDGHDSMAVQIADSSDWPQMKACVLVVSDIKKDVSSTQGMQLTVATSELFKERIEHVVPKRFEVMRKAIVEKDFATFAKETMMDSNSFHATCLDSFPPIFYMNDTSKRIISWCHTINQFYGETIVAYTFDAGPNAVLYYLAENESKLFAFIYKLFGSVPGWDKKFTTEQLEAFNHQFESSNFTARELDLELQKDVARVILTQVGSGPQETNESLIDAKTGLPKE
Text: as §6, §7

[8] = biological target: T1, enoyl-CoA hydratase encoded by phaJ (SEQ ID NO: 16); experiment: Native enzyme activity assay in the forward (hydration) direction, spectrophotometry at 263 nm; format: biochemical, Aeromonas punctata; conditions: for acceptance as substrate, hydration direction, inferred from reversibility of the enzyme reaction: inferred from the dehydration results and the favoured hydration direction
Description: as §1, §2, §3, §4
The native enzyme activity assay in the forward (hydration) direction was undertaken in a buffer composed of 10 mM ammonium acetate (pH=8) and 1 mM of crotonyl-CoA from Sigma-Aldrich at 30° C. The enzyme activity assay reaction was initiated by adding 0.4 μM of purified enoyl-CoA hydratase to the assay buffer containing the substrate. The enzyme encoded by phaJ accepted crotonyl-CoA as substrate as confirmed via spectrophotometry at 263 nm at 30° C.

Compound: CC(O)CC(=O)SCCNC(=O)CCNC(=O)[C@H](O)C(C)(C)COP(=O)(O)OP(=O)(O)OC[C@H]1O[C@@H](n2cnc3c(N)ncnc32)[C@H](O)[C@@H]1OP(=O)(O)O (mixture of isomers) [3-hydroxybutanoyl-CoA, reference compound]
acceptance as substrate, reverse (dehydration) direction [1]: accepted

Compound: C=C(C)C(C)O (stereo not drawn) [3-methyl-3-buten-2-ol]
acceptance as substrate, isoprene as reaction product [2]: accepted

Compound: C=CC(C)(O)CC(=O)O (stereo not drawn) [3-methyl-3-hydroxypent-4-enoate]
acceptance as substrate, isoprene as reaction product [3]: accepted
acceptance as substrate, isoprene as reaction product [4]: accepted
acceptance as substrate, isoprene as reaction product [5]: accepted
acceptance as substrate, isoprene as reaction product [6]: accepted
acceptance as substrate, isoprene as reaction product [7]: accepted

acceptance as substrate, reverse (dehydration) direction [1]: accepted
Compound: CCC(C)(O)CC(=O)SCCNC(=O)CCNC(=O)[C@H](O)C(C)(C)COP(=O)(O)OP(=O)(O)OC[C@H]1O[C@@H](n2cnc3c(N)ncnc32)[C@H](O)[C@@H]1OP(=O)(O)O (stereo partly drawn) [3-methyl-3-hydroxypentanoyl-CoA]

Compound: CCC(C)=CC(=O)SCCNC(=O)CCNC(=O)[C@H](O)C(C)(C)COP(=O)(O)OP(=O)(O)OC[C@H]1O[C@@H](n2cnc3c(N)ncnc32)[C@H](O)[C@@H]1OP(=O)(O)O [3-methyl-pent-2-enoyl-CoA]
acceptance as substrate, hydration direction, inferred from reversibility of the enzyme reaction [8]: accepts

acceptance as substrate, reverse (dehydration) direction [1]: accepted
Compound: CC(C)C(O)CC(=O)SCCNC(=O)CCNC(=O)[C@H](O)C(C)(C)COP(=O)(O)OP(=O)(O)OC[C@H]1O[C@@H](n2cnc3c(N)ncnc32)[C@H](O)[C@@H]1OP(=O)(O)O (stereo partly drawn) [4-methyl-3-hydroxypentanoyl-CoA]

Compound: CC(C)C=CC(=O)SCCNC(=O)CCNC(=O)[C@H](O)C(C)(C)COP(=O)(O)OP(=O)(O)OC[C@H]1O[C@@H](n2cnc3c(N)ncnc32)[C@H](O)[C@@H]1OP(=O)(O)O [4-methyl-pent-2-enoyl-CoA]
acceptance as substrate, hydration direction, inferred from reversibility of the enzyme reaction [8]: accepts

Compound: C/C=C/C(=O)SCCNC(=O)CCNC(=O)[C@H](O)C(C)(C)COP(=O)(O)OP(=O)(O)OC[C@H]1O[C@@H](n2cnc3c(N)ncnc32)[C@H](O)[C@@H]1OP(=O)(O)O [crotonyl-CoA, reference compound]
acceptance as substrate, forward (hydration) direction ([8]; 1 mM substrate, 0.4 μM purified enzyme, 10 mM ammonium acetate pH 8, 30° C., spectrophotometry at 263 nm): accepted
